Test results as given in ChEMBL document CHEMBL1201862, “PubChem BioAssay data set” (2004).
The source made the active and inactive calls.

What was measured:
HEK293 [1] = assay: cells; details: Homo sapiens
Tumor necrosis factor = Tumor necrosis factor (Homo sapiens, UniProt P01375); assay: TNFa-triggered NF-kB activation inhibitors, SAR follow-up, cell-based, revised (AID 2337); format: functional
[2] = molecular target: Nucleotide-binding oligomerization domain-containing protein 2 (Homo sapiens, UniProt Q9HC29); assay: PubChem AID 2334; format: functional
Nucleotide-binding oligomerization domain-containing protein 2, sequence (Q9HC29 whole entry, the tested form may be a part): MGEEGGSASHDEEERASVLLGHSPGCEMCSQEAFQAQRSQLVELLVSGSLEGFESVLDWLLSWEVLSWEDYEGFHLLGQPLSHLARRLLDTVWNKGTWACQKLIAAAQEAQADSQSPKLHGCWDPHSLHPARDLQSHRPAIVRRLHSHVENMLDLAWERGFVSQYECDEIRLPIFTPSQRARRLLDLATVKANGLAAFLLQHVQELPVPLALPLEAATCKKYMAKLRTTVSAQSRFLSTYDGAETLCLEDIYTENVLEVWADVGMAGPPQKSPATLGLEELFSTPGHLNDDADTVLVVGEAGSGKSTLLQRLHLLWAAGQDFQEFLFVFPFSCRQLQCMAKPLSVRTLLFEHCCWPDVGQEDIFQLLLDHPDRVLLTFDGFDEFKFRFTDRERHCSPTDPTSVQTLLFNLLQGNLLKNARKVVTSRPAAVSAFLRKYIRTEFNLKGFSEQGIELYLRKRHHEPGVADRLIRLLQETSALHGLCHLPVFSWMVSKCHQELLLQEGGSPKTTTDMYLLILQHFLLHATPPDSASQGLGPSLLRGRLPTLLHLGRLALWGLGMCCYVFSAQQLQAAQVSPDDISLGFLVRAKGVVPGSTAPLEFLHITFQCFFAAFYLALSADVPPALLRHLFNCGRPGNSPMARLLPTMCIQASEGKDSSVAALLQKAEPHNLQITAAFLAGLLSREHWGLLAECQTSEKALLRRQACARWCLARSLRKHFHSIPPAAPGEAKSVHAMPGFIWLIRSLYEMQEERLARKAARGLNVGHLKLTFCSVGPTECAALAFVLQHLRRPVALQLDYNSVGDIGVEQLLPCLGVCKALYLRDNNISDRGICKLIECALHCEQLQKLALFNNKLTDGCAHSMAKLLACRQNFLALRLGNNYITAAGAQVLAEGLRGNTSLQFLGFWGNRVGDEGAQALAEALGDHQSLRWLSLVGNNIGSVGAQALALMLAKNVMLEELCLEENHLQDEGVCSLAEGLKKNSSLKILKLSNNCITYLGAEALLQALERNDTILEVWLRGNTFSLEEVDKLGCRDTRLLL

[3] = molecular target: Nucleotide-binding oligomerization domain-containing protein 1 (Homo sapiens, UniProt Q9Y239); assay: NOD1 signaling inhibitors, SAR follow-up, revised (AID 2333); format: functional
[4] = molecular target: Heat shock protein HSP 90-alpha (Homo sapiens, UniProt P07900); format: functional, organism-based
[5] = cytotoxicity in HEK-293T NF-kB-Luc cells, dose response, cytotoxicity control for B/T-cell NF-kB inhibitor project, cell-based, uHTS hits (AID 489019); format: functional;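 further: IC50 reflects cytotoxicity as loss of cell viability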
[6] = A549 cell cytotoxicity, dose response, cytotoxicity control, plate reader, cherry-pick, antagonist series (AID 743412); format: functional, cell-based
[7] = MC4R antagonists, dose response, counter-screen for LGR2 antagonist project, cell-based, plate reader, cherry pick (AID 743444); format: functional;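 further: transfected HEK 293 cells stimulated with alpha-MSH peptide; potency of inhibitors of the alpha-MSH evoked signal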
[8] = LGR2 antagonists, dose response, cell-based, HEK293, CRE-luciferase reporter, cherry pick, set 2 (AID 743343); format: functional;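 further: transfected cells were stimulated with diluted bursicon conditioned medium after compound addition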
Jurkat = assay: antigen receptor-induced NF-kB inhibitors, dose response, Jurkat, luciferase reporter, luminescence, B- and T-cell (AID 489004); format: functional, cell-based; details: Homo sapiens;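 further: NF-kB luciferase reporter Jurkat cells stimulated with PMA plus ionomycin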
[9] = HEK293 cell cytotoxicity, dose response, cytotoxicity control, plate reader, cherry-picked samples (AID 743446); format: functional, cell-based
[10] = molecular target: T1, Microphthalmia-associated transcription factor (Homo sapiens, UniProt O75030); assay: TRPM1 promoter luciferase signal decrease, dose response, MITF inhibitor project, cell-based, SK-MEL-5, cherry-picked, set 3 (AID 493073); format: functional
T1 sequence (O75030 whole entry): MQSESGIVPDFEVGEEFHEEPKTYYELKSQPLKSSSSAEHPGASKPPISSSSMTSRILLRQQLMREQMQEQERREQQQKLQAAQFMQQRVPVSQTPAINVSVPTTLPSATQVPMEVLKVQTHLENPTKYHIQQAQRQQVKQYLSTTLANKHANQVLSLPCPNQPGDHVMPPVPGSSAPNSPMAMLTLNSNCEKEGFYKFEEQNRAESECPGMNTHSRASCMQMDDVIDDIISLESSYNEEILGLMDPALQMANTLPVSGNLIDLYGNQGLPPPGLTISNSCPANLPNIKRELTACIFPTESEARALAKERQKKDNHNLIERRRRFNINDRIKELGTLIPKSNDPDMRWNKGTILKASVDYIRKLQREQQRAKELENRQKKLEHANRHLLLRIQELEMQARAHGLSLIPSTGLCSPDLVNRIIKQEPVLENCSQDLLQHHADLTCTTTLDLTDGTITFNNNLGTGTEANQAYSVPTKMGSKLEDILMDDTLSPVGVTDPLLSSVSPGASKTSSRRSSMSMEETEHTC

[11] = non-specific cell cytotoxicity, dose response, cytotoxicity control for PAX8 inhibitor project, plate reader, dry powder samples (AID 743021); format: functional, cell-based
Paired box protein Pax-8 = Paired box protein Pax-8 (Homo sapiens, UniProt Q06710); assay: inhibitors of PAX8-driven TPO luciferase reporter, dose response, RMG-I cells, cherry-pick (AID 687027); format: functional, cell-based;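 further: luciferase reporter driven by Pax8 target thyroperoxidase promoter measured by SteadyGlo luminescence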
Paired box protein Pax-8, sequence (Q06710 whole entry): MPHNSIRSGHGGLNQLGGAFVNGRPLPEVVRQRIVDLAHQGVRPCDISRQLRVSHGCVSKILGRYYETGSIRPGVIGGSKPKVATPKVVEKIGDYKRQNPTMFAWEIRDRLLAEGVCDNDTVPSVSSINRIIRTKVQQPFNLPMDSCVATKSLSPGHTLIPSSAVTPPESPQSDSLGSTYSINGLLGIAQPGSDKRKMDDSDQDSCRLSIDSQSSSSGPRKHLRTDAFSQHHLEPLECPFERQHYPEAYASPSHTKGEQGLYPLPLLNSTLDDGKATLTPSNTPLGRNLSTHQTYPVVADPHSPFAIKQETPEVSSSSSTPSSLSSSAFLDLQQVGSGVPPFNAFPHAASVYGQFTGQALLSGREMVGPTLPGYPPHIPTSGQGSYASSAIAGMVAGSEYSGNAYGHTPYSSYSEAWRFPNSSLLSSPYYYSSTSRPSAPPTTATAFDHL

[12] = HepG2 cell cytotoxicity, dose response, cytotoxicity control, plate reader, cherry-pick, antagonist series (AID 743416); format: functional, cell-based
HEK293 [13] = assay: cells; format: functional, cell-based; details: Homo sapiens
[14] = molecular target: Nuclear receptor subfamily 0 group B member 1 (Homo sapiens, UniProt P51843); assay: Luminescence-based cell-based high throughput dose response assay for inhibitors of the orphan nuclear receptor subfamily 0, group B, member 1 (DAX1; NR0B1). [Related pubchem assays (depositor defined):AID504766, AID504790]; format: functional
Nuclear receptor subfamily 0 group B member 1, sequence (P51843 whole entry): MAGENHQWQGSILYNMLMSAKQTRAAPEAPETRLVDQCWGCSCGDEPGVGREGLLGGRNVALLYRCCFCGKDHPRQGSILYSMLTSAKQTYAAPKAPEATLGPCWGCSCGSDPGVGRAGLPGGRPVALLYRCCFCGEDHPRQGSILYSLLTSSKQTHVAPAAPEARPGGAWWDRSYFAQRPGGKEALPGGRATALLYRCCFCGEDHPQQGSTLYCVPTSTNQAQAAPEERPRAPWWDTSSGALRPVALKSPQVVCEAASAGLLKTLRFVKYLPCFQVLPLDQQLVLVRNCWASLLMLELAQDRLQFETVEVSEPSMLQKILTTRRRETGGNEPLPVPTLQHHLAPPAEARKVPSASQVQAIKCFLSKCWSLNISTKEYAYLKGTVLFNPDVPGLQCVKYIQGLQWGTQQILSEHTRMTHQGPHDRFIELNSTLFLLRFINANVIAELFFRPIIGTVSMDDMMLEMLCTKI

Cytochrome P450 2C9 = Cytochrome P450 2C9 (Homo sapiens, UniProt P11712)
Cytochrome P450 2C9, sequence (P11712 whole entry): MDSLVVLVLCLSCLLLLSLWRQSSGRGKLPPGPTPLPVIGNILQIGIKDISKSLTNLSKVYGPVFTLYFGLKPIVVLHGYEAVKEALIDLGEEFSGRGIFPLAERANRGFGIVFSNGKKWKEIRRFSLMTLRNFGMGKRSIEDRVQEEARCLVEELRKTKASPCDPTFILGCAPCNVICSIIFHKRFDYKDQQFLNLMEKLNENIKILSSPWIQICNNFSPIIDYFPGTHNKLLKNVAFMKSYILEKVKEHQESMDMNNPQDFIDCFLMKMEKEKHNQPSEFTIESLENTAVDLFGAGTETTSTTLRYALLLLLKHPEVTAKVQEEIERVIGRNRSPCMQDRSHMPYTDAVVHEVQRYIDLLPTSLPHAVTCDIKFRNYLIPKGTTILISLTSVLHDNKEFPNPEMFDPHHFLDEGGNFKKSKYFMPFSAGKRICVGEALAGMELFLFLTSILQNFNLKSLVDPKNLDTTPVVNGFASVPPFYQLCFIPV

[15] = cytotoxicity in HMLE control line with eGFP shRNA, dose response, counter-screen for HMLE_sh_ECad selective toxicity project, cell-based, HMLE_sh_eGFP, luminescence (AID 463074); format: functional, Homo sapiens;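 further: HMLE human mammary epithelial cells expressing control shRNA against eGFP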
[16] = Luminescence Cell-Based Dose Retest to Confirm Inhibitors of Cancer Stem Cells. [Related pubchem assays (depositor defined):AID2717, AID2721]; format: functional; details: Homo sapiens
Cytochrome P450 2D6 = Cytochrome P450 2D6 (Homo sapiens, UniProt P10635);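 further: CYP2D6 member of a cytochrome P450 panel assay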
Cytochrome P450 2C19 = Cytochrome P450 2C19 (Homo sapiens, UniProt P33261); assay: Cytochrome panel assay with activity outcomes. Panel member name: p450-cyp2c19 Compounds with AC50 equal or less than 10 uM are considered active; format: functional
Cytochrome P450 2C19, sequence (P33261 whole entry): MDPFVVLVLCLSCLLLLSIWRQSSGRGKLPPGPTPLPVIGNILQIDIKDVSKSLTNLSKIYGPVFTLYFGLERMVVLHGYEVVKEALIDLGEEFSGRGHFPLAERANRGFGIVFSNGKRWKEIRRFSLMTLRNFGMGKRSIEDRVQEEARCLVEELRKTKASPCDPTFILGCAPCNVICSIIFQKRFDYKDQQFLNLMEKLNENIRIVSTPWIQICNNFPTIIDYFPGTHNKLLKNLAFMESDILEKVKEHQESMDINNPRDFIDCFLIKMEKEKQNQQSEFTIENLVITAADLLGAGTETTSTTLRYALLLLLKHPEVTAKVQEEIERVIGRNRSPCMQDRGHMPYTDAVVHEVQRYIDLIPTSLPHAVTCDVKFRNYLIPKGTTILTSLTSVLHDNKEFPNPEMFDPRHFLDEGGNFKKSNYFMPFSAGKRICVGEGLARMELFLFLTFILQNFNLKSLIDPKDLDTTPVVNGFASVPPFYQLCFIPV

[17] = molecular target: Dual specificity protein kinase CLK1 (Homo sapiens, UniProt P49759); assay: CLK1 kinase inhibitors, off-target check, dose response, selectivity assay for Dyrk1A inhibitor project, biochemical, cherry-picked samples (AID 588811)
Dual specificity protein kinase CLK1, sequence (P49759 whole entry): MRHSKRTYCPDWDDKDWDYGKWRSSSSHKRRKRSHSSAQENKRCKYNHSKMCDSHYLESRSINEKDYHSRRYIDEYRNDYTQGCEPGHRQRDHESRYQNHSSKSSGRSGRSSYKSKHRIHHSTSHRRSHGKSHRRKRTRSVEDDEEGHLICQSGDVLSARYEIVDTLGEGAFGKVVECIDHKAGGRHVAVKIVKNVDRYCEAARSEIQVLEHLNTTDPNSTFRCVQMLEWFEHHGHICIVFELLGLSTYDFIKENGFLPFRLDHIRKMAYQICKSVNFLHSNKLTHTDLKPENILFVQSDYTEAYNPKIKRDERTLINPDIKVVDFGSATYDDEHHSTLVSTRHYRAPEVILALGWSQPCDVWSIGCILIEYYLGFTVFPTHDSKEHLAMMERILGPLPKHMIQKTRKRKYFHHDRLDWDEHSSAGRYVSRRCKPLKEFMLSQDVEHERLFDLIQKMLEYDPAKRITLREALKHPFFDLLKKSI

[18] = molecular target: Dual specificity tyrosine-phosphorylation-regulated kinase 1A (Rattus norvegicus, UniProt Q63470); format: biochemical, Homo sapiens
[19] = cytotoxicity toward DRD oncogenic fibroblasts, dose response, cell-based, non-viral oncogenic, luminescence (AID 1934); format: functional; details: Homo sapiens
[20] = molecular target: Luciferin 4-monooxygenase (Photinus pyralis, UniProt P08659); assay: firefly luciferase enzyme inhibitors, dose response, biochemical, luminescence (AID 1891)
Luciferin 4-monooxygenase, sequence (P08659 whole entry): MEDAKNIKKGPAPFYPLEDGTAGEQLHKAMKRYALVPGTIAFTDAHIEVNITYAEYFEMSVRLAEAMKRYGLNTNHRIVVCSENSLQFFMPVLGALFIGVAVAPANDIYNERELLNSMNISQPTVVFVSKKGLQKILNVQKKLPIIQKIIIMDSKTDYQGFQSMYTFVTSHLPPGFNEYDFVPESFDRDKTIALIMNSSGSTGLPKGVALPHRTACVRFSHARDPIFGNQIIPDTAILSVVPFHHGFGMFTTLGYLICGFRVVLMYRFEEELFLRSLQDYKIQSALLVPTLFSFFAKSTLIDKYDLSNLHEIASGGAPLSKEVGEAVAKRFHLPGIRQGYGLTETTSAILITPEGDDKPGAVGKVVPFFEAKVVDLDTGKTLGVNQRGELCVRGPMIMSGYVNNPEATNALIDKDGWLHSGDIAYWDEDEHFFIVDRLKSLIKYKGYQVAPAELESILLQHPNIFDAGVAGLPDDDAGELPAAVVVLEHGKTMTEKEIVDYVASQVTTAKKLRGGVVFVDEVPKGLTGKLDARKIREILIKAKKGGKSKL

BJ [21] = assay: cytotoxicity toward BJ-TERT-LT-ST fibroblasts, dose response, cell-based, RAS-independent, luminescence (AID 1935); format: functional; details: Homo sapiens;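 further: BJ fibroblasts immortalized with TERT plus LT and ST oncogenes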
BJ [22] = assay: cells; format: functional, cell-based; details: Homo sapiens
[23] = Luminescence Cell-Based Dose Confirmation HTS to Identify Inhibitors of Platelet Dense Granule Release. [Related pubchem assays: 1663 (Primary HTS), 1678 (Summary of Project)]; format: functional
[24] = ADP-Glo luciferase interference without Dyrk1A, dose response, artefact control for Dyrk1A inhibitor project, biochemical, luminescence, cherry-pick, set 02 (AID 588348)
BJ [25] = assay: cytotoxicity toward BJ-TERT fibroblasts, dose response, cell-based, RAS-independent, luminescence (AID 1933); format: functional; details: Homo sapiens
[26] = inhibition of ADP-Glo detection reagents, dose response, artefact control for CDK5 inhibitor project, biochemical, luminescence, cherry-picked samples, set 2 (AID 504546); format: functional
Cysteine protease ATG4B = Cysteine protease ATG4B (Homo sapiens, UniProt Q9Y4P1); format: functional;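 further: Fluorescence-based dose-response confirmation assay measuring inhibition of ATG4B activity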
Cysteine protease ATG4B, sequence (Q9Y4P1 whole entry): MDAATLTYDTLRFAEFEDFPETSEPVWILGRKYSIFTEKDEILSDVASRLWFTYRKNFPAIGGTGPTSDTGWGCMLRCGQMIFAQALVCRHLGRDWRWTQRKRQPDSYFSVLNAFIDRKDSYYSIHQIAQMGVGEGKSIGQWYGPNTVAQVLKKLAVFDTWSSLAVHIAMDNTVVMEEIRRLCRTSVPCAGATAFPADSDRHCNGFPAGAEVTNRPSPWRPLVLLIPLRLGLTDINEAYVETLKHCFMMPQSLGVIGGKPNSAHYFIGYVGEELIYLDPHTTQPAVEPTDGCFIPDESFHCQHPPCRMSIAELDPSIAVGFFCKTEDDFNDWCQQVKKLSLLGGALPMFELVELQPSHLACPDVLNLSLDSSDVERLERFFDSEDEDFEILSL

Phospholipase A2 = Phospholipase A2 (Homo sapiens, UniProt P04054); format: functional;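 further: confirmatory dose-response counterscreen on phospholipase A2, testing hits that came from an ultra-high-throughput screen for ATG4B inhibitors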
Phospholipase A2, sequence (P04054 whole entry): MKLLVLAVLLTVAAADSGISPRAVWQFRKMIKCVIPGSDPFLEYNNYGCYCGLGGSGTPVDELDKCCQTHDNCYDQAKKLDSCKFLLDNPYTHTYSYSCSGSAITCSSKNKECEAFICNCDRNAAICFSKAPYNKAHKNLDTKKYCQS

Tumor necrosis factor, sequence (P01375 whole entry, the tested form may be a part): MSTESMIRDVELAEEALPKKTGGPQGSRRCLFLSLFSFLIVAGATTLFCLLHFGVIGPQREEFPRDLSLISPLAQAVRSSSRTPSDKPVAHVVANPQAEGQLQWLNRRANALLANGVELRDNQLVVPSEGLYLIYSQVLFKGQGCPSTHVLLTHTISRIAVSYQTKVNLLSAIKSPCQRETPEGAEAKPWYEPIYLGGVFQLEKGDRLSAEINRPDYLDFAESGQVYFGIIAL

With CC(C)(C)NC(=S)NNC=C1C=C(Br)C(=O)C(Br)=C1 the IC50 (HEK293 [1]) was > 20 µM (inactive), the IC50 (Tumor necrosis factor) was 15.6 µM (active) and the IC50 [2] was 7.93 µM (active). The IC50 [3] was 7.29 µM (active).
With N/C(Cc1ccc(Cl)cc1)=N\OC(=O)c1cccc2ccccc12 the AC50 [4] was 1.8 µM (active).
With CCOc1ccc(NC(=O)Nc2cccc(C(=O)O)c2)cc1 the IC50 [5] was > 80 µM (inactive), the AC50 [6] was 45.1 µM (active) and the AC50 [7] was 0.319 µM (active). The AC50 [8] was 0.303 µM (active), the IC50 (Jurkat) was 0.85 µM (active) and the AC50 [9] was 40.4 µM (active). The AC50 [10] was 1.53 µM (active), the AC50 [11] was 11.7 µM (active) and the AC50 (Paired box protein Pax-8) was 3.85 µM (active). For the same compound, the AC50 [12] was > 52 µM (inactive).
For Cc1ccc2nc3c(cc2c1)c(NC(=O)c1ccco1)nn3CC(C)C, the IC50 (HEK293 [13]) was > 67.5 µM (inactive) and the IC50 [14] was > 67.5 µM (inactive).
For Cc1nn(-c2ccc(F)cc2)c(Cl)c1/C=C(\CCC(=O)O)c1nc2ccccc2s1, the AC50 (Cytochrome P450 2C9) was 39.8 µM (inconclusive), the AC50 [15] was 23.5 µM (active) and the AC50 [16] was 18.7 µM (active).
For CC1=C(C(=O)O)N2C(=O)[C@@H](NC(=O)[C@@H](N)C3=CCC=CC3)[C@@H]2SC1, the AC50 (Cytochrome P450 2D6) was “inconclusive” and the AC50 (Cytochrome P450 2C19) was “inconclusive”.
With Cc1nc(N)sc1-c1csc(Nc2ccccc2)n1 the AC50 [17] was 18.3 µM (active) and the AC50 [18] was 14.4 µM (active).
In the case of CCOc1ccc(-c2ccc(SC)nn2)cc1, the EC50 [19] is reported as 9.86 µM (active), the AC50 [6] is reported as 18.6 µM (active) and the EC50 [20] is reported as 2.3 µM (active). The AC50 [7] was 2.36 µM (active), the AC50 [8] was 3.05 µM (active) and the EC50 (BJ [21]) was > 150 µM (not active). The EC50 (BJ [22]) was 9.15 µM (active), the EC50 [23] was 1.74 µM (active) and the AC50 [9] was 14 µM (active). For the same compound, the AC50 [10] was 5.17 µM (active), the AC50 [18] was 20.8 µM (active) and the AC50 [12] was 15 µM (active). For the same compound, the AC50 [24] was 26.1 µM (active), the EC50 (BJ [25]) was 11.5 µM (active) and the AC50 [26] was 76.7 µM (active).
In the case of N#Cc1c(N)[nH]c2ccc(Sc3ccccc3)cc12, the IC50 (Cysteine protease ATG4B) is reported as 11.5 µM (active) and the IC50 (Phospholipase A2) is reported as 9.57 µM (active).
